Experiments:
Plasmodium falciparum [1] = assay: MMV: Inhibition of Plasmodium falciparum 3D7 at 5uM compound concentration.; format: functional
Plasmodium falciparum [2] = assay: MMV: Inhibition of Plasmodium falciparum 3D7 (EC50).; format: functional, organism-based
Trypanosoma cruzi = assay: MMV: Inhibition of Trypanosoma cruzi (Tulahuen C4 LacZ) (Chagas in vitro).; format: functional, organism-based
[3] = system: Trypanosoma brucei brucei; assay: MMV: Inhibition of Trypanosoma brucei brucei (Squib 427) (HAT in vitro).; format: functional, organism-based
[4] = system: Trypanosoma brucei rhodesiense; assay: MMV: Inhibition of Trypanosoma brucei rhodesiense (STIB 900) (HAT in vitro).; format: functional, organism-based
Leishmania infantum = assay: MMV: Inhibition of Leishmania infantum (MHOM/MA/BE/67) in vitro.; format: functional, organism-based
[5] = MMV: Cytotoxicity against human fibroblasts (MRC-5) cells.; details: MRC-5 cells (human fibroblasts)

SMILES: c1ccc(-c2ccc(-c3nc4ccccc4[nH]3)cc2)cc1
- inhibition at 5 µM (Plasmodium falciparum [1]): 52%
- EC50 (Plasmodium falciparum [2]): 1.07 µM
- IC50 (Trypanosoma cruzi): > 32 µM
- IC50 [3]: > 32 µM
- IC50 [4]: > 32 µM
- IC50 (Leishmania infantum): > 32 µM
- IC50 [5]: > 32 µM

SMILES: COc1ccc(CCNC(=O)c2cc(S(=O)(=O)N3CC(C)CC(C)C3)ccc2Sc2ccc(F)cc2)cc1OC (stereo not drawn)
- inhibition at 5 µM (Plasmodium falciparum [1]): 97%
- EC50 (Plasmodium falciparum [2]): 0.632 µM
- IC50 (Trypanosoma cruzi): > 32 µM
- IC50 [3]: > 32 µM
- IC50 [4]: > 32 µM
- IC50 (Leishmania infantum): > 32 µM
- IC50 [5]: > 32 µM

SMILES: CCOc1ccc(Nc2c3ccccc3nc3ccccc23)cc1
- inhibition at 5 µM (Plasmodium falciparum [1]): 97%
- EC50 (Plasmodium falciparum [2]): 1.06 µM
- IC50 (Trypanosoma cruzi): 1.25 µM
- IC50 [3]: 3.45 µM
- IC50 [4]: 0.976 µM
- IC50 (Leishmania infantum): 1.59 µM
- IC50 [5]: 8.44 µM

SMILES: COc1ccc(Nc2nc(N/N=C/c3ccc(O)cc3)nc(Nc3ccc([N+](=O)[O-])cc3)n2)cc1
- inhibition at 5 µM (Plasmodium falciparum [1]): 98%
- EC50 (Plasmodium falciparum [2]): 0.532 µM
- IC50 (Trypanosoma cruzi): 18.6 µM
- IC50 [3]: 14.7 µM
- IC50 [4]: 9.88 µM
- IC50 (Leishmania infantum): 21.5 µM
- IC50 [5]: > 32 µM

SMILES: CCCCCCOC(=O)C1=C(C)NC(=O)NC1c1ccccc1F (stereo not drawn)
- inhibition at 5 µM (Plasmodium falciparum [1]): 95%
- EC50 (Plasmodium falciparum [2]): 0.106 µM
- IC50 (Trypanosoma cruzi): > 32 µM
- IC50 [3]: > 32 µM
- IC50 [4]: > 32 µM
- IC50 (Leishmania infantum): 18.4 µM
- IC50 [5]: > 32 µM

SMILES: COc1ccc(CCN2CCC(CN(C)Cc3cnn(-c4ccccc4)c3)CC2)cc1
- inhibition at 5 µM (Plasmodium falciparum [1]): 96%
- EC50 (Plasmodium falciparum [2]): 1.43 µM
- IC50 (Trypanosoma cruzi): 6.43 µM
- IC50 [3]: 0.86 µM
- IC50 [4]: 0.254 µM
- IC50 (Leishmania infantum): 12 µM
- IC50 [5]: 18.6 µM

SMILES: O=c1nc(C=Cc2ccc(Cl)cc2)oc2ccccc12
- inhibition at 5 µM (Plasmodium falciparum [1]): 76%
- EC50 (Plasmodium falciparum [2]): 0.995 µM
- IC50 (Trypanosoma cruzi): > 32 µM
- IC50 [3]: > 32 µM
- IC50 [4]: 27.4 µM
- IC50 (Leishmania infantum): > 32 µM
- IC50 [5]: > 32 µM

SMILES: COCCN(C(=O)Cc1cccs1)C(C(=O)NCc1ccc(OC)cc1)c1ccc(C(C)C)cc1 (stereo not drawn)
- inhibition at 5 µM (Plasmodium falciparum [1]): 92%
- EC50 (Plasmodium falciparum [2]): 1.19 µM
- IC50 (Trypanosoma cruzi): 16.3 µM
- IC50 [3]: 16.2 µM
- IC50 [4]: 16.2 µM
- IC50 (Leishmania infantum): > 32 µM
- IC50 [5]: 27 µM

SMILES: CC1CC(C)CN(C(=O)c2ccc(Cl)cc2Cl)C1 (stereo not drawn)
- inhibition at 5 µM (Plasmodium falciparum [1]): 95%
- EC50 (Plasmodium falciparum [2]): 0.756 µM
- IC50 (Trypanosoma cruzi): 24.7 µM
- IC50 [3]: > 32 µM
- IC50 [4]: > 32 µM
- IC50 (Leishmania infantum): 17.3 µM
- IC50 [5]: > 32 µM

SMILES: CCn1c2c(c(=N)c3c1CCC3)CCCC2
- inhibition at 5 µM (Plasmodium falciparum [1]): 77%
- EC50 (Plasmodium falciparum [2]): 0.695 µM
- IC50 (Trypanosoma cruzi): 9.02 µM
- IC50 [3]: > 32 µM
- IC50 [4]: > 32 µM
- IC50 (Leishmania infantum): > 32 µM
- IC50 [5]: 32 µM

SMILES: Cc1[nH]c(-c2ccc(F)cc2)cc1C(=O)NC1CCN(Cc2ccccc2)CC1
- inhibition at 5 µM (Plasmodium falciparum [1]): 99%
- EC50 (Plasmodium falciparum [2]): 0.771 µM
- IC50 (Trypanosoma cruzi): > 32 µM
- IC50 [3]: 6.26 µM
- IC50 [4]: 4.03 µM
- IC50 (Leishmania infantum): > 32 µM
- IC50 [5]: > 32 µM

SMILES: Cc1ccc(Cn2c(N3CCC(C(=O)NCc4cccs4)CC3)nc3ccccc32)cc1
- inhibition at 5 µM (Plasmodium falciparum [1]): 73%
- EC50 (Plasmodium falciparum [2]): 0.947 µM
- IC50 (Trypanosoma cruzi): > 32 µM
- IC50 [3]: > 32 µM
- IC50 [4]: > 32 µM
- IC50 (Leishmania infantum): 25.4 µM
- IC50 [5]: > 32 µM

SMILES: COc1cc(C(=O)Nc2ccc(-c3nc4ccccc4[nH]3)cc2)cc(OC)c1OC
- inhibition at 5 µM (Plasmodium falciparum [1]): 95%
- EC50 (Plasmodium falciparum [2]): 1.22 µM
- IC50 (Trypanosoma cruzi): > 32 µM
- IC50 [3]: 3.37 µM
- IC50 [4]: 2.54 µM
- IC50 (Leishmania infantum): > 32 µM
- IC50 [5]: > 32 µM

SMILES: COc1ccc(/C=C2/SC(=Nc3ccccc3)NC2=O)cc1
- inhibition at 5 µM (Plasmodium falciparum [1]): 71%
- EC50 (Plasmodium falciparum [2]): 0.551 µM
- IC50 (Trypanosoma cruzi): > 32 µM
- IC50 [3]: > 32 µM
- IC50 [4]: 16.3 µM
- IC50 (Leishmania infantum): > 32 µM
- IC50 [5]: 11.5 µM

SMILES: O=C(CCc1ccco1)NC1CCN(CC2(c3ccc(Cl)cc3)CCC2)CC1
- inhibition at 5 µM (Plasmodium falciparum [1]): 96%
- EC50 (Plasmodium falciparum [2]): 1.14 µM
- IC50 (Trypanosoma cruzi): 16.6 µM
- IC50 [3]: 2.89 µM
- IC50 [4]: 1.01 µM
- IC50 (Leishmania infantum): 19 µM
- IC50 [5]: > 32 µM

SMILES: FC(F)(F)c1cccc(CNC2CCN(CCc3ccccc3)CC2)c1
- inhibition at 5 µM (Plasmodium falciparum [1]): 96%
- EC50 (Plasmodium falciparum [2]): 0.685 µM
- IC50 (Trypanosoma cruzi): 15.7 µM
- IC50 [3]: 2.73 µM
- IC50 [4]: 1.31 µM
- IC50 (Leishmania infantum): 16.6 µM
- IC50 [5]: > 32 µM

SMILES: CCn1c(SCC(=O)Nc2cc(C(F)(F)F)ccc2Cl)nc2ccccc2c1=O
- inhibition at 5 µM (Plasmodium falciparum [1]): 91%
- EC50 (Plasmodium falciparum [2]): 1 µM
- IC50 (Trypanosoma cruzi): > 32 µM
- IC50 [3]: > 32 µM
- IC50 [4]: > 32 µM
- IC50 (Leishmania infantum): > 32 µM
- IC50 [5]: > 32 µM

SMILES: COc1ccc2c(c1OC)C(=O)N1c3ccccc3N=C(c3ccc(C)cc3)CC21 (stereo not drawn)
- inhibition at 5 µM (Plasmodium falciparum [1]): 93%
- EC50 (Plasmodium falciparum [2]): 1.24 µM
- IC50 (Trypanosoma cruzi): > 32 µM
- IC50 [3]: 4.28 µM
- IC50 [4]: 3.83 µM
- IC50 (Leishmania infantum): > 32 µM
- IC50 [5]: > 32 µM

SMILES: O=C(Nc1cccc(-c2nc3ccccc3[nH]2)c1)c1cccc(NC(=O)c2ccco2)c1
- inhibition at 5 µM (Plasmodium falciparum [1]): 95%
- EC50 (Plasmodium falciparum [2]): 0.745 µM
- IC50 (Trypanosoma cruzi): > 32 µM
- IC50 [3]: > 32 µM
- IC50 [4]: > 32 µM
- IC50 (Leishmania infantum): > 32 µM
- IC50 [5]: > 32 µM

SMILES: O=C1c2ccccc2C2=Nc3ccccc3SC(c3cccc(F)c3)C12 (stereo not drawn)
- inhibition at 5 µM (Plasmodium falciparum [1]): 94%
- EC50 (Plasmodium falciparum [2]): 0.415 µM
- IC50 (Trypanosoma cruzi): > 32 µM
- IC50 [3]: > 32 µM
- IC50 [4]: 7.17 µM
- IC50 (Leishmania infantum): > 32 µM
- IC50 [5]: > 32 µM

SMILES: Cc1ccc(Cl)cc1N1CCN(CCCNC(=O)C2CCN(c3nc4ccccc4[nH]3)CC2)CC1
- inhibition at 5 µM (Plasmodium falciparum [1]): 97%
- EC50 (Plasmodium falciparum [2]): 1.33 µM
- IC50 (Trypanosoma cruzi): 3.74 µM
- IC50 [3]: 1.31 µM
- IC50 [4]: 1.01 µM
- IC50 (Leishmania infantum): 4 µM
- IC50 [5]: 14.5 µM

SMILES: O=C(NC1CCN(Cc2ccccc2)CC1)c1cc(-c2cccnc2)nc2ccc(Cl)cc12
- inhibition at 5 µM (Plasmodium falciparum [1]): 91%
- EC50 (Plasmodium falciparum [2]): 1.01 µM
- IC50 (Trypanosoma cruzi): > 32 µM
- IC50 [3]: 14 µM
- IC50 [4]: 3.83 µM
- IC50 (Leishmania infantum): > 32 µM
- IC50 [5]: > 32 µM

SMILES: CCCn1c(=N)c(C(=O)NC2CCCCC2)cc2c(=O)n3cccc(C)c3nc21
- inhibition at 5 µM (Plasmodium falciparum [1]): 96%
- EC50 (Plasmodium falciparum [2]): 1.11 µM
- IC50 (Trypanosoma cruzi): > 32 µM
- IC50 [3]: 16.1 µM
- IC50 [4]: 8.44 µM
- IC50 (Leishmania infantum): > 32 µM
- IC50 [5]: > 32 µM

SMILES: CCOC(=O)c1cnc2ccc(Cl)cc2c1NCCCN(C)C
- inhibition at 5 µM (Plasmodium falciparum [1]): 98%
- EC50 (Plasmodium falciparum [2]): 1.19 µM
- IC50 (Trypanosoma cruzi): 16.2 µM
- IC50 [3]: 7.4 µM
- IC50 [4]: 4.19 µM
- IC50 (Leishmania infantum): 16.1 µM
- IC50 [5]: > 32 µM

SMILES: O=C(NC1CCN(Cc2ccccc2)CC1)c1cc(-c2ccncc2)nc2ccc(Cl)cc12
- inhibition at 5 µM (Plasmodium falciparum [1]): 92%
- EC50 (Plasmodium falciparum [2]): 1.02 µM
- IC50 (Trypanosoma cruzi): 4.59 µM
- IC50 [3]: 4.03 µM
- IC50 [4]: 3.51 µM
- IC50 (Leishmania infantum): 16.2 µM
- IC50 [5]: > 32 µM

SMILES: O=C(NCc1ccco1)C1CCN(S(=O)(=O)c2ccc(Cl)cc2)CC1
- inhibition at 5 µM (Plasmodium falciparum [1]): 94%
- EC50 (Plasmodium falciparum [2]): 0.891 µM
- IC50 (Trypanosoma cruzi): > 32 µM
- IC50 [3]: > 32 µM
- IC50 [4]: 28.9 µM
- IC50 (Leishmania infantum): > 32 µM
- IC50 [5]: > 32 µM

SMILES: CCOc1cc(Br)c(C(C)NC(=O)c2cccc(OC)c2)cc1OCC (stereo not drawn)
- inhibition at 5 µM (Plasmodium falciparum [1]): 96%
- EC50 (Plasmodium falciparum [2]): 1.43 µM
- IC50 (Trypanosoma cruzi): > 32 µM
- IC50 [3]: > 32 µM
- IC50 [4]: > 32 µM
- IC50 (Leishmania infantum): > 32 µM
- IC50 [5]: > 32 µM

SMILES: Fc1ccc2[nH]c3c(NCCCN4CCOCC4)ncnc3c2c1
- inhibition at 5 µM (Plasmodium falciparum [1]): 98%
- EC50 (Plasmodium falciparum [2]): 0.345 µM
- IC50 (Trypanosoma cruzi): > 32 µM
- IC50 [3]: > 32 µM
- IC50 [4]: 18.3 µM
- IC50 (Leishmania infantum): > 32 µM
- IC50 [5]: > 32 µM

SMILES: CCN1CCN(Cc2ccc(NC(=O)c3cc4ccc5cccnc5c4[nH]3)cc2)CC1
- inhibition at 5 µM (Plasmodium falciparum [1]): 70%
- EC50 (Plasmodium falciparum [2]): 0.361 µM
- IC50 (Trypanosoma cruzi): 8 µM
- IC50 [3]: 3.78 µM
- IC50 [4]: 0.928 µM
- IC50 (Leishmania infantum): 6.35 µM
- IC50 [5]: 8.47 µM
